Source: patent publication US10544089B2, “Innovative preparation and crystallization of iosimenol” (OTSUKA PHARMACEUTICAL CO., LTD., priority 2015, dated 2020)

Tests used:
[1] = Solubility of iosimenol in organic solvents (crystallization attempts); assay type: physicochemical
Excerpt: The present inventors applied crystallization methods described in literature, but this approach always failed, independently on using crude or purified iosimenol. If any solid was obtained, we usually obtained solid of gummy consistency and we never observed any purity increase.

[2] = Heat stability of iosimenol in crystallization solution (colour change, impurities); assay type: physicochemical; settings: between 80-110° C.
Excerpt: Although contrast media are relatively stable compounds, usually after a long-term exposure to heat, certain degradation may occur. The most vulnerable are amide groups and covalently bound iodine. In case of iosimenol, the acidic hydrogens on aliphatic carbon of malonyl group may cause cleavage of the bridge at higher temperature and can lead to form monomeric impurities. These all mentioned degradations are more intensive under strong acidic or strong basic conditions. Using our experience in formulation of iosimenol, we used trometamol as a buffer to control pH between 6-7 from the viewpoint of influencing of color. Ideal conditions for iosimenol crystallization are when the crystallization is performed at shortest process time at lowest possible temperature under suitable and controlled pH between 6-7 by buffer from the viewpoint of influencing of color.
Therefore, ideal conditions for crystallization are temperatures between 80-110° C., pH 6-7 and as short as possible time for crystallization.

- solubility in solvents ([1]; alcohols, ethers and alkoxyalcohols): practically insoluble
- solubility in aprotic solvents ([1]; aprotic solvents like dimethylformamide): extremely high solubility
SMILES: NC(=O)c1c(I)c(C(=O)NCC(O)CO)c(I)c(N(CC(O)CO)C(=O)CC(=O)N(CC(O)CO)c2c(I)c(C(N)=O)c(I)c(C(=O)NCC(O)CO)c2I)c1I (stereo not drawn) [iosimenol, N,N′-bis[3-carbamoyl-5-(2,3-dihydroxypropyl-carbamoyl)-2,4,6-triiodophenyl]-N,N′-bis(2,3-dihydroxypropyl)-malonamide]
- degradation on heating (impurities) [2]: no new impurities or increased level of known impurities are observed
